Experiments:
ob/ob and db/db mice = conditions: 8 day administration; cited from earlier work
Human recombinant AMPK = assay: AMPK Enzymatic Assay (Z'Lyte FRET); format: biochemical; conditions: ATP 100 μM, peptide 2 μM, means of at least 2 independent experiments
Description: Human recombinant AMPK (Invitrogen #PV4673 & #PV4675) is used in a FRET assay format (Z'Lyte—Invitrogen). Assay conditions are as follow: ATP 100 μM, peptide (Invitrogen # PR8650) 2 μM, 1% final DMSO in Z'Lyte kinase buffer. Reaction is initiated by addition of 0.2-0.8 ng of AMPK and incubated for 1-hour @ 30° C. A further 1-hour incubation @ 30° C. with the development reagent (Invitrogen # PR5194) is performed. FRET signal is then measured and converted to “% peptide phosphorylation” according to Z'Lyte given calculation procedure. Evaluation of compounds is carried out using concentration-response curves. Final data are expressed in “% activation” calculating the ratio of “% peptide phosphorylation” between compound-condition and basal-condition. Alternatively pEC200 (−Log(compound concentration leading to a 2-fold AMPK activity increase)) is produced through fitting of the concentration-response curves. All data are means of at least 2 independent experiments.

SMILES	reduces blood glucose (ob/ob and db/db mice)	pEC50 (Human recombinant AMPK)
NC(=O)c1ncn([C@@H]2O[C@H](CO)[C@@H](O)[C@H]2O)c1N [AICAR]	35%	
Cl.Nc1nc(-c2ccc(-n3c(Cl)cc4[nH]c(=O)n(-c5cccc(C(=O)O)c5)c(=O)c43)cc2)cs1 [Example 11, 3-(5-(4-(2-Aminothiazol-4-yl)phenyl)-6-chloro-2,4-dioxo-1H-pyrrolo[3,2-d]pyrimidin-3(2H,4H,5H)-yl)benzoic acid hydrochloride]		6.2
Nc1nc(-c2ccc(-n3c(Cl)cc4[nH]c(=O)n(-c5ccccc5F)c(=O)c43)cc2)cs1 [Example 12, 5-[4-(2-Amino-1,3-thiazol-4-yl)phenyl]-6-chloro-3-(2-fluorophenyl)-1H-pyrrolo[3,2-d]pyrimidine-2,4(3H,5H)-dione]		6.1

Reference: US20130345243A1, “1H-PYROLLO[3,2-D]PYRIMIDINEDIONE DERIVATIVES” (GLAXOSMITHKLINE LLC, priority 2011, published 2013)
